The structures appear in SMILES notation. Where two headings read alike, the source gives them in different places.

From patent publication US10375962B2, “Heterocycle derivatives as pesticides” (BAYER CROPSCIENCE AKTIENGESELLSCHAFT, priority 2016, dated 2019) come the findings set out here.

The nature of data set [1]: log P by HPLC on a reversed-phase column (C 18), EEC Directive 79/831 Annex V.A8. As to conditions: for chromatographic logP: reversed-phase HPLC column (C 18). The format is physicochemical. An excerpt: Called log P (HCOOH) in the table.
Called log P (neutral) in the table.

Data set [2] concerns larvae of the mustard beetle (Phaedon cochleariae). The data set is described as follows: Phaedon cochleariae - spray test. In kind it is in vivo. As to conditions: after 7 days. As to the method:
Solvent: 78.0 parts by weight of acetone • • 1.5 parts by weight of dimethylformamide
Emulsifier: alkylaryl polyglycol ether
(§1) To produce a suitable active compound formulation, 1 part by weight of active compound is dissolved with the stated parts by weight of solvent and made up with water containing an emulsifier concentration of 1000 ppm until the desired concentration is attained. To produce further test concentrations, the formulation is diluted with emulsifier-containing water.
Discs of Chinese cabbage leaves (Brassica pekinensis) are sprayed with an active compound formulation of the desired concentration and, after drying, populated with larvae of the mustard beetle (Phaedon cochleariae).
After 7 days, the efficacy in % is determined. 100% means that all the beetle larvae have been killed and 0% means that none of the beetle larvae have been killed.

Data set [3] relates to caterpillars of the armyworm (Spodoptera frugiperda). The data set is described as follows: Spodoptera frugiperda - spray test. In kind it is in vivo. The following applies: maize leaf discs, after 7 days. As to the method: Solvent: 78.0 parts by weight of acetone • • 1.5 parts by weight of dimethylformamide Emulsifier: alkylaryl polyglycol ether […] To produce further test concentrations, the formulation is diluted with emulsifier-containing water. Leaf discs of maize (Zea mays) are sprayed with an active compound preparation of the desired concentration and, after drying, populated with caterpillars of the armyworm (Spodoptera frugiperda).

In data set [4] the test system is green peach aphid (Myzus persicae). The data set can be described thus: Myzus persicae - spray test (Chinese cabbage leaf discs). The following applies: after 5 days. The format is in vivo. As for the experimental part:
Solvent: 78 parts by weight of acetone • • 1.5 parts by weight of dimethylformamide Emulsifier: alkylaryl polyglycol ether
as §1
Discs of Chinese cabbage leaves (Brassica pekinensis) infested by all stages of the green peach aphid (Myzus persicae) are sprayed with an active compound formulation of the desired concentration.
After 5 days, the efficacy in % is determined. 100% means that all the aphids have been killed and 0% means that none of the aphids have been killed.

[5] abbreviates: acidic range, pH 2.7, 0.1% aqueous formic acid/acetonitrile, 55° C.
Setting [6] is: neutral range, pH 7.8, 0.001 molar aqueous ammonium hydrogencarbonate/acetonitrile, 55° C.

Consider `CCS(=O)(=O)c1ccc(-n2c(=O)[nH]c3ccccc32)nc1-c1nc2cc(C(F)(F)F)ncc2n1C` [Example I-45], for which, in data set [1] (pH 2.7), the “LOGP_HCOOH (log P (HCOOH))” value was 2.59. In addition, the “LOGP_NEUTRAL (log P (neutral))” value in data set [1] (pH 7.8) is listed as 2.62.

As for `CCS(=O)(=O)c1ccc(N2C(=O)c3ccccc3C2=O)nc1-c1nc2cc(C(F)(F)F)ncc2n1C` [Example I-40], the efficacy in data set [2] (application rate 100 g/ha) and in data set [2] (application rate 500 g/ha) was 100% each time. Further, in data set [1] (pH 2.7), the “LOGP_HCOOH (log P (HCOOH))” value is listed as 2.92. Moreover, the “LOGP_NEUTRAL (log P (neutral))” value in data set [1] (pH 7.8) came out at 2.96.

In the case of `CCS(=O)(=O)c1ccc(N2Cc3cc(OC)ccc3C2=O)nc1-c1nc2cc(C(F)(F)F)ncc2n1C` [Example I-38], in data set [1] (pH 2.7), the “LOGP_HCOOH (log P (HCOOH))” value is reported as 3.29. For the same molecule, the “LOGP_NEUTRAL (log P (neutral))” value in data set [1] (pH 7.8) is 3.32. Besides, the efficacy in data set [3] (application rate 100 g/ha) was 100%.

On to `CCS(=O)(=O)c1ccc(-n2ncc3ccncc32)nc1-c1nc2cc(C(F)(F)F)ncc2n1C` [Example I-7], for which the efficacy in data set [2] (application rate 100 g/ha) and in data set [2] (application rate 500 g/ha) was 100% throughout.

As for `CCS(=O)(=O)c1ccc(-n2ccc3ncccc32)nc1-c1nc2cc(C(F)(F)F)ncc2n1C` [Example I-20], the “LOGP_HCOOH (log P (HCOOH))” value in data set [1] (setting [5]) was 1.75. In addition, the “LOGP_NEUTRAL (log P (neutral))” value in data set [1] (setting [6]) was determined as 2.47.

Turning to `CCS(=O)(=O)c1ccc(-n2c(=O)n(C)c3ccccc32)nc1-c1nc2cc(C(F)(F)F)ncc2n1C` [Example I-44], the “LOGP_HCOOH (log P (HCOOH))” value in data set [1] (pH 2.7) came out at 3.10. Also, the “LOGP_NEUTRAL (log P (neutral))” value in data set [1] (pH 7.8) came to 3.06.

Take `CCS(=O)(=O)c1ccc(-n2nc3ccc(Cl)nn3c2=O)nc1-c1nc2cc(C(F)(F)F)ncc2n1C` [Example I-42]: in data set [2] (application rate 100 g/ha), the efficacy turned out to be 100%. In addition, the “LOGP_HCOOH (log P (HCOOH))” value in data set [1] (pH 2.7) came out at 2.42. Moreover, in data set [1] (pH 7.8), the “LOGP_NEUTRAL (log P (neutral))” value is recorded as 2.38.

Take `CCS(=O)(=O)c1ccc(-n2cc3c(Cl)cc(C(F)(F)F)cn3c2=O)nc1-c1nc2cc(C(F)(F)F)ncc2n1C` [Example I-12]: the efficacy in data set [2] (application rate 100 g/ha) is on record as 100%; in data set [2] (application rate 500 g/ha), 100%; in data set [3] (application rate 100 g/ha) it was 100%; in data set [3] (application rate 500 g/ha), 100%; in data set [4] (application rate 100 g/ha), 90%; in data set [4] (application rate 500 g/ha), 90%. Besides, the “LOGP_HCOOH (log P (HCOOH))” value in data set [1] (pH 2.7) stood at 4.27. Besides, the “LOGP_NEUTRAL (log P (neutral))” value in data set [1] (pH 7.8) is 4.18.

For `CC[S+]([O-])c1ccc(-n2cc3cccnc3n2)nc1-c1nc2cc(C(F)(F)F)ncc2n1C` (stereo not shown) [Example I-13], the “LOGP_HCOOH (log P (HCOOH))” value in data set [1] (pH 2.7) is 2.46. Moreover, the “LOGP_NEUTRAL (log P (neutral))” value in data set [1] (pH 7.8) came out at 2.45.

On to `CCS(=O)(=O)c1ccc(-n2c(=O)oc3ccccc32)nc1-c1nc2cc(C(F)(F)F)ncc2n1C` [Example I-41], for which the “LOGP_HCOOH (log P (HCOOH))” value in data set [1] (setting [5]) worked out at 3.25. For the same molecule, the “LOGP_NEUTRAL (log P (neutral))” value in data set [1] (setting [6]) stood at 3.26.

In the case of `CCS(=O)(=O)c1ccc(-n2nnc3ccc(Cl)nc32)nc1-c1nc2cc(C(F)(F)F)ncc2n1C` [Example I-37], in data set [1] (pH 2.7), the “LOGP_HCOOH (log P (HCOOH))” value was 2.96. For the same molecule, in data set [1] (pH 7.8), the “LOGP_NEUTRAL (log P (neutral))” value was 3.00. This molecule also gave an efficacy in data set [4] (application rate 100 g/ha) of 90%.

`CCS(=O)(=O)c1ccc(N2Cc3cccnc3C2=O)nc1-c1nc2cc(C(F)(F)F)ncc2n1C` [Example I-46]: in data set [1] (pH 2.7), the “LOGP_HCOOH (log P (HCOOH))” value was determined as 2.26. For the same molecule, in data set [1] (pH 7.8), the “LOGP_NEUTRAL (log P (neutral))” value was found to be 2.30.

As to `CCS(=O)(=O)c1ccc(-n2cnc3ccc(OC)cc32)nc1-c1nc2cc(C(F)(F)F)ncc2n1C` [Example I-30], the “LOGP_HCOOH (log P (HCOOH))” value in data set [1] (pH 2.7) is 2.69. In data set [1] (pH 7.8), the “LOGP_NEUTRAL (log P (neutral))” value is 2.67.

Regarding `CCS(=O)(=O)c1ccc(-n2ccc3ccccc32)nc1-c1nc2cc(C(F)(F)F)ncc2n1C` [Example I-26], in data set [1] (setting [5]), the “LOGP_HCOOH (log P (HCOOH))” value is 3.72. Further, in data set [1] (setting [6]), the “LOGP_NEUTRAL (log P (neutral))” value is listed as 3.65.

For the molecule `CCS(=O)(=O)c1ccc(-n2ccc3nccc(Cl)c32)nc1-c1nc2cc(C(F)(F)F)ncc2n1C` [Example I-19], the efficacy in data set [2] (application rate 100 g/ha) is given as 100%; in data set [2] (application rate 500 g/ha), 100%; in data set [4] (application rate 100 g/ha) it was 90%; in data set [4] (application rate 500 g/ha), 70%. In addition, the “LOGP_HCOOH (log P (HCOOH))” value in data set [1] (pH 2.7) worked out at 2.51. In data set [1] (pH 7.8), the “LOGP_NEUTRAL (log P (neutral))” value is 2.69.

As for `CCS(=O)(=O)c1ccc(-c2cccc3nn(C)cc23)nc1-c1nc2cc(C(F)(F)F)ncc2n1C` [Example I-16], the efficacy in data set [2] (application rate 500 g/ha) is given as 83%. For the same molecule, the “LOGP_HCOOH (log P (HCOOH))” value in data set [1] (pH 2.7) was determined as 2.73. The “LOGP_NEUTRAL (log P (neutral))” value in data set [1] (pH 7.8) was found to be 2.67.

`CCS(=O)(=O)c1ccc(-n2nnc3cc(Cl)ccc32)nc1-c1nc2cc(C(F)(F)F)ncc2n1C` [Example I-50]: the efficacy in data set [2] (application rate 100 g/ha) and in data set [3] (application rate 100 g/ha) was 100% each time. The “LOGP_HCOOH (log P (HCOOH))” value in data set [1] (setting [5]) amounted to 3.72. In addition, in data set [1] (setting [6]), the “LOGP_NEUTRAL (log P (neutral))” value turned out to be 3.77.

On to `CCS(=O)(=O)c1ccc(-n2c(=O)[nH]c3cc(Cl)ccc32)nc1-c1nc2cc(C(F)(F)F)ncc2n1C` [Example I-47], for which the “LOGP_HCOOH (log P (HCOOH))” value in data set [1] (pH 2.7) amounted to 3.05.

`CCS(=O)(=O)c1ccc(-c2cn(C)c3ccccc23)nc1-c1nc2cc(C(F)(F)F)ncc2n1C` [Example I-1, 2-[3-(Ethylsulphonyl)-6-(1-methyl-1H-indol-3-yl)pyridin-2-yl]-3-methyl-6-(trifluoromethyl)-3H-imidazo[4,5-c]pyridine]: the chromatographic logP came out at 3.55 in data set [1] (acidic range, pH 2.7, 0.1% aqueous formic acid/acetonitrile, 55° C., read-out: LOGP_HCOOH (log P (HCOOH))) and 3.45 in data set [1] (neutral range, pH 7.8, 0.001 molar aqueous ammonium hydrogencarbonate/acetonitrile, 55° C., read-out: LOGP_NEUTRAL (log P (neutral))).

`CCS(=O)(=O)c1ccc(-n2ncc3cccc(Cl)c32)nc1-c1nc2cc(C(F)(F)F)ncc2n1C` [Example I-8]: the “LOGP_HCOOH (log P (HCOOH))” value in data set [1] (setting [5]) is reported as 3.44. The “LOGP_NEUTRAL (log P (neutral))” value in data set [1] (setting [6]) was 3.34.

With `CCS(=O)(=O)c1ccc(-n2ccc3cc(Cl)ccc32)nc1-c1nc2cc(C(F)(F)F)ncc2n1C` [Example I-25], the “LOGP_HCOOH (log P (HCOOH))” value in data set [1] (setting [5]) worked out at 4.10. Further, the “LOGP_NEUTRAL (log P (neutral))” value in data set [1] (setting [6]) worked out at 4.09.

Regarding `CCS(=O)(=O)c1ccc(-c2ccc3cn(C)nc3c2)nc1-c1nc2cc(C(F)(F)F)ncc2n1C` [Example I-14], the “LOGP_HCOOH (log P (HCOOH))” value in data set [1] (pH 2.7) stood at 2.71. Also, the “LOGP_NEUTRAL (log P (neutral))” value in data set [1] (pH 7.8) turned out to be 2.65. The efficacy in data set [3] (application rate 100 g/ha) was 100%; in data set [3] (application rate 500 g/ha) it was 100%; in data set [4] (application rate 500 g/ha), 70%.

As to `CCS(=O)(=O)c1ccc(-n2nnc3ccc(Cl)cc32)nc1-c1nc2cc(C(F)(F)F)ncc2n1C` [Example I-49], the efficacy in data set [2] (application rate 100 g/ha) and in data set [3] (application rate 100 g/ha) was 100% throughout. In addition, the “LOGP_HCOOH (log P (HCOOH))” value in data set [1] (setting [5]) amounted to 3.74. Moreover, the “LOGP_NEUTRAL (log P (neutral))” value in data set [1] (setting [6]) amounted to 3.74.

As to `CCS(=O)(=O)c1ccc(-n2c(=O)[nH]c3ccc(Cl)cc32)nc1-c1nc2cc(C(F)(F)F)ncc2n1C` [Example I-48], the “LOGP_HCOOH (log P (HCOOH))” value in data set [1] (pH 2.7) was found to be 2.97.

Consider `CCS(=O)(=O)c1ccc(-n2ncc3cc(Cl)ccc32)nc1-c1nc2cc(C(F)(F)F)ncc2n1C` [Example I-9], for which the “LOGP_HCOOH (log P (HCOOH))” value in data set [1] (pH 2.7) worked out at 4.03. In addition, in data set [1] (pH 7.8), the “LOGP_NEUTRAL (log P (neutral))” value is recorded as 4.03.

In the case of `CCS(=O)(=O)c1ccc(-n2cccc3oc(=O)nc2-3)nc1-c1nc2cc(C(F)(F)F)ncc2n1C` [Example I-51], the “LOGP_HCOOH (log P (HCOOH))” value in data set [1] (pH 2.7) turned out to be 2.09. Moreover, in data set [1] (pH 7.8), the “LOGP_NEUTRAL (log P (neutral))” value is listed as 2.08.

`CCS(=O)(=O)c1ccc(-n2ccc3ccc(Cl)cc32)nc1-c1nc2cc(C(F)(F)F)ncc2n1C` [Example I-23]: the “LOGP_HCOOH (log P (HCOOH))” value in data set [1] (pH 2.7) turned out to be 4.04. Further, the “LOGP_NEUTRAL (log P (neutral))” value in data set [1] (pH 7.8) was 4.04. Further, the efficacy in data set [4] (application rate 500 g/ha) was determined as 90%.
